From ChEMBL document CHEMBL2028040, “Malaria Box”

Assays:
[1] = MMV: Cytotoxicity against human fibroblasts (MRC-5) cells.; settings: MRC-5 cells (human fibroblasts)
[2] = test system: Trypanosoma brucei brucei; assay: MMV: Inhibition of Trypanosoma brucei brucei (Squib 427) (HAT in vitro).; assay type: functional, organism-based
[3] = test system: Trypanosoma cruzi; assay: MMV: Inhibition of Trypanosoma cruzi (Tulahuen C4 LacZ) (Chagas in vitro).; assay type: functional, organism-based
[4] = test system: Leishmania infantum; assay: MMV: Inhibition of Leishmania infantum (MHOM/MA/BE/67) in vitro.; assay type: functional, organism-based
[5] = test system: Plasmodium falciparum; assay: MMV: Inhibition of Plasmodium falciparum 3D7 (EC50).; assay type: functional, organism-based
[6] = test system: Trypanosoma brucei rhodesiense; assay: MMV: Inhibition of Trypanosoma brucei rhodesiense (STIB 900) (HAT in vitro).; assay type: functional, organism-based
[7] = test system: Plasmodium falciparum; assay: MMV: Inhibition of Plasmodium falciparum 3D7 at 5uM compound concentration.; assay type: functional

Row | Compound | IC50 [1] [µM] | IC50 [2] [µM] | IC50 [3] [µM] | IC50 [4] [µM] | EC50 [5] [µM] | IC50 [6] [µM] | inhibition at 5 µM [7] [%]
1 | COc1ccc2nc(C)cc(Nc3ccccc3O)c2c1 | > 32 | > 32 | > 32 | > 32 | 0.686 | > 32 | 
2 | COc1ccc2c(c1)OC(O)(C(F)(F)C(F)(F)F)CC2=O (centres undefined) | 25.6 | > 32 | 16.1 | 25.4 | 0.283 | 17.1 | 
3 | Clc1ccc2[nH]c3c(NCCCN4CCOCC4)ncnc3c2c1 | > 32 | > 32 | 21.3 | > 32 | 0.7 | 3.94 | 
4 | OC(CNCC1CCCO1)Cn1c2ccc(Cl)cc2c2cc(Cl)ccc21 (centres undefined) | > 32 | 10 | 19.2 | 16.1 | 1.06 | 6.12 | 
5 | COc1ccc(CCn2c(=N)c(C(=O)NCc3cccnc3)cc3c(=O)n4cccc(C)c4nc32)cc1 | > 32 | 4 | 13.2 | 12.7 | 0.373 | 3.6 | 
6 | Oc1ccc(Br)cc1CN1CCN(Cc2cccc(F)c2)CC1 | > 32 | > 32 | 12.6 | 25.4 | 1.03 | 16.7 | 
7 | CCN(CC)CCNc1ccnc2cc(Cl)ccc12 | > 32 | 10.2 | 6.35 | 17.3 | 0.0581 | 10.3 | 
8 | Cc1ccc(-c2cc3c(SCC(=O)Nc4cc(C(F)(F)F)ccc4Cl)nccn3n2)cc1 | > 32 | > 32 | > 32 | > 32 | 0.0928 | > 32 | 
9 | CCN(CC)CCNc1ncnc2c1[nH]c1ccc(Cl)cc12 | > 32 | 4.09 | 10.7 | 16.2 | 0.406 | 3.73 | 
10 | COc1ccc(Nc2nc(NCc3ccccc3)c3ccccc3n2)cc1 | 12.4 | 3.84 | 3.55 | 1.01 | 0.589 | 4.03 | 
11 | O=C(NCC(c1ccsc1)N1CCCCCC1)c1ccc(C(F)(F)F)cc1 (centres undefined) | > 32 | 16.1 | 22.5 | 16.1 | 0.433 | 1.7 | 
12 | Cc1cc(N(C)C)nc(Nc2ccc(NC(=O)Nc3ccccc3)cc2)n1 | 23.8 | 5.54 | 1.03 | 4.32 | 1.15 | 1.25 | 
13 | N=c1n(CCN2CCCCC2)c2ccccc2n1CC(=O)c1ccc(Cl)c(Cl)c1 | 10.6 | 4 | 4.48 | 4.06 | 1.24 | 1.1 | 
14 | Cc1cc(N2CCCC2)nc(Nc2ccc(NC(=O)CCc3ccccc3)cc2)n1 | 5.38 | 4.3 | 1.01 | 1.19 | 1.07 | 0.871 | 
15 | COc1ccc2c(c1)C1(Nc3ccccc3-c3nc4ccccc4n31)C(=O)N2 (centres undefined) | > 32 | > 32 | > 32 | > 32 | 0.928 | > 32 | 
16 | Cc1cccc(-n2ncc3c(O)nc(-n4nc(C)cc4NC(=O)c4cc5ccccc5o4)nc32)c1 | 0.653 | 0.481 | 0.234 | 4.32 | 0.929 | 0.305 | 
17 | O=C(NC1CCN(Cc2ccccc2)CC1)c1cc2nc(-c3ccc(Cl)s3)cc(C(F)(F)F)n2n1 | > 32 | > 32 | > 32 | 16 | 0.959 | > 32 | 

Row | Compound | IC50 [1] [µM] | IC50 [2] [µM] | IC50 [3] [µM] | IC50 [4] [µM] | EC50 [5] [µM] | IC50 [6] [µM] | inhibition at 5 µM [7] [%]
18 | Nc1nc(Nc2cccc(F)c2)nc2ccccc12 | > 32 | 27.3 | 20.2 | 16 | 1 | 16.8 | 
19 | O=C(O)C1Cc2c([nH]c3ccccc23)C(c2ccc(Cl)cc2Cl)N1 (centres undefined) | > 32 | > 32 | > 32 | > 32 | 0.35 | > 32 | 
20 | CCN(CC)CCNc1ccnc2cc3ccccc3cc12 | 12.2 | 4.06 | 14.8 | 4.32 | 0.391 | 3.94 | 
21 | CCOc1c(Cl)cc(CNCC(O)c2ccccc2)cc1OC (centres undefined) | > 32 | 11.9 | > 32 | > 32 | 1.05 | 16.1 | 
22 | CCn1nc(-c2ccc(C(=O)OC)cc2)nc2c(=O)n(C)c(=O)nc1-2 | 3.53 | 0.28 | 0.81 | 4.06 | 0.693 | 0.803 | 
23 | Cc1cc(NC(=O)c2cccc(C(F)(F)F)c2)n(-c2nc(-c3ccc4c(c3)OCO4)cs2)n1 | > 32 | > 32 | > 32 | 16.2 | 0.959 | > 32 | 
24 | CC(C)(C)CC(C)(C)NCC(O)COc1ccc(Cl)cc1Cl (centres undefined) | 16.1 | 4 | 12.2 | 6.35 | 1.16 | 4.06 | 
25 | Nc1ccn([C@@H]2O[C@H](CO)[C@@H](O)[C@H]2O)c(=O)n1 [CYTIDINE] | > 32 | > 32 | > 32 | > 32 | 0.385 | > 32 | 
26 | COc1cccc(Nc2nc(NCCO)c3ccccc3n2)c1 | 26.3 | 14.3 | 13.3 | 4.32 | 0.854 | 6.75 | 
27 | CCN(CC)c1ccc(NC(=O)c2cccs2)cc1 | > 32 | > 32 | > 32 | > 32 |  | > 32 | 88
28 | COc1ccc(C2N(C)c3ccccc3N2C)cc1 | > 32 | > 32 | > 32 | > 32 |  | > 32 | 62
29 | Oc1c2c(nc3cc(-c4ccccc4)nn13)CCCC2 | > 32 | 12.8 | > 32 | > 32 |  | 8 | 77
30 | O=C(NC1CCCC1)c1ccc(N2CCC(NCc3cccc(C(F)(F)F)c3)CC2)cc1 | > 32 | > 32 | 21.3 | 16.6 |  | 14.4 | 93
31 | CCOc1cccc2sc(N(Cc3cccnc3)C(=O)C3CCCCC3)nc12 | > 32 | 27 | 0.165 | 19 |  | 16 | 94
32 | CC(C)(C)c1ccc(C(=O)Nc2nc3ccccc3s2)cc1 | > 32 | > 32 | > 32 | > 32 |  | > 32 | 81
33 | CN(C)c1ccc(-c2nc3cc(N)ccc3[nH]2)cc1 | > 32 | 19.6 | 17.4 | > 32 |  | 18 | 64
34 | COc1ccc(C(=O)C(CCC(CNC(C)(C)C)C(=O)c2ccc(OC)cc2)CNC(C)(C)C)cc1 (centres undefined) | 10.3 | 1.02 | 4.15 | 0.846 |  | 1.65 | 85
